Measurements from ChEMBL document CHEMBL5303304, “EUbOPEN Chemogenomics Library - IncuCyte” (2023).

What was measured:
Format in all cases: toxicity, cell-based
[1] = tested on: HEK-293T; assay: Incucyte cell viability with HEK293T; settings: human, 10 µM, compound concentration 10 uM
[2] = tested on: Fibroblast; assay: Incucyte cell viability with human fibroblast; settings: 10 µM, compound concentration 10 uM
[3] = tested on: U2OS; assay: Incucyte cell viability with U2OS; settings: human, 10 µM, compound concentration 10 uM
Further: unitless GR value; below 1 slowed growth and below 0 cell loss.

| Structure (SMILES) | Growth Rate ([1]; 0 h, replicate number 1) | Growth Rate ([1]; 0 h, replicate number 2) | Growth Rate ([1]; 6 h, replicate number 1) | Growth Rate ([1]; 12 h, replicate number 1) | Growth Rate ([1]; 12 h, replicate number 2) | Growth Rate ([1]; 18 h, replicate number 2) | Growth Rate ([2]; 0 h, replicate number 1) | Growth Rate ([2]; 12 h, replicate number 2) | Growth Rate ([2]; 24 h, replicate number 2) | Growth Rate ([3]; 0 h, replicate number 2) | Growth Rate ([3]; 6 h, replicate number 1) | Growth Rate ([3]; 12 h, replicate number 1) | Growth Rate ([3]; 12 h, replicate number 2) | Growth Rate ([3]; 18 h, replicate number 2) | Growth Rate ([3]; 24 h, replicate number 1) | Growth Rate ([3]; 24 h, replicate number 2) | Growth Rate ([1]; 6 h, replicate number 2) | Growth Rate ([3]; 6 h, replicate number 2) | Growth Rate ([2]; 24 h, replicate number 1) | Growth Rate ([3]; 18 h, replicate number 1) | other results |
| --- | --- | --- | --- | --- | --- | --- | --- | --- | --- | --- | --- | --- | --- | --- | --- | --- | --- | --- | --- | --- | --- |
| CCCCC[C@H](O)/C=C/[C@H]1[C@H](O)CC(=O)[C@@H]1CCCCCCC(=O)O [ALPROSTADIL] | -0.3 | 0.55 | 0.47 | 0.82 | 0.97 | 0.98 | -1 | 0.37 | 0.9 | 0.57 | 0.87 | 0.94 | 0.76 | 0.76 | 0.93 | 0.92 |  |  |  |  | Growth Rate ([2]; 18 h, replicate number 2): 0.79 |
| CC(=O)Nc1nc2c(Oc3cc(-c4ccc(C(F)(F)F)cc4)ncn3)cccc2s1 [AMG-517] | 0.87 |  | 0.63 | 0.82 |  |  | -0.1 | 0.8 |  | -0.37 | 0.79 | 0.8 | 0.88 | 0.91 | 0.86 | 0.96 | 0.69 | 0.81 |  |  | Growth Rate ([1]; 18 h, replicate number 1): 0.67; Growth Rate ([1]; 24 h, replicate number 1): 0.89; Growth Rate ([1]; 24 h, replicate number 2): 0.99; Growth Rate ([2]; 0 h, replicate number 2): -1; Growth Rate ([2]; 6 h, replicate number 1): -0.08; Growth Rate ([2]; 6 h, replicate number 2): -0.6; Growth Rate ([2]; 12 h, replicate number 1): -1 |
| Cc1csc(-c2nnc(Nc3ccc(Oc4ncccc4-c4ccnc(N)n4)cc3)c3ccccc23)c1 [AMG-900] | -0.13 | -0.21 |  |  |  |  |  | 0.98 |  |  | 0.79 | 0.57 | 0.16 | 0.17 | 0.33 | 0.41 |  | 0.9 | 0.75 | 0.27 | Growth Rate ([2]; 0 h, replicate number 2): -0.73 |
| CCCCc1oc2ccccc2c1C(=O)c1cc(I)c(OCCN(CC)CC)c(I)c1.Cl [AMIODARONE HYDROCHLORIDE] |  | -0.99 | 0.31 | 0.36 | -0.11 | 0.1 | 0.24 | -0.27 | -0.43 |  | 0.43 | 0.98 |  |  |  |  | -0.04 |  | -0.01 | 0.77 | Growth Rate ([1]; 18 h, replicate number 1): 0.5; Growth Rate ([1]; 24 h, replicate number 1): 0.45; Growth Rate ([1]; 24 h, replicate number 2): 0.24; Growth Rate ([2]; 6 h, replicate number 2): -0.16; Growth Rate ([2]; 12 h, replicate number 1): 0.4; Growth Rate ([2]; 18 h, replicate number 1): -0.02; Growth Rate ([2]; 18 h, replicate number 2): -0.44; Growth Rate ([3]; 0 h, replicate number 1): 0.24 |
| O=C(Nc1cccc(Nc2nccc(Nc3cccc(C(F)(F)F)c3)n2)c1)C1CC1 [ANILINOPYRIMIDINE1] |  |  | -0.91 | -0.71 | -0.79 | -0.54 | -1 | -0.73 | -0.55 | 0.91 | -0.16 | -0.21 | -0.42 | -0.3 | -0.08 | -0.1 | -0.97 | -0.36 | -0.48 | -0.21 | Growth Rate ([1]; 18 h, replicate number 1): -0.46; Growth Rate ([1]; 24 h, replicate number 1): -0.29; Growth Rate ([1]; 24 h, replicate number 2): -0.38; Growth Rate ([2]; 6 h, replicate number 1): -0.79; Growth Rate ([2]; 6 h, replicate number 2): -1; Growth Rate ([2]; 12 h, replicate number 1): -0.84; Growth Rate ([2]; 18 h, replicate number 1): -0.68; Growth Rate ([3]; 0 h, replicate number 1): -0.01 |
| Cc1nnc2n1-c1sc(CCC(=O)N3CCOCC3)cc1C(c1ccccc1Cl)=NC2 [APAFANT] |  | -0.56 |  | 0.78 |  |  |  |  |  |  | 0.58 | 0.67 | 0.76 |  | 0.88 | 0.98 |  | 0.99 | 0.8 | 0.88 | Growth Rate ([2]; 0 h, replicate number 2): -0.81; Growth Rate ([2]; 18 h, replicate number 1): 0.73; Growth Rate ([3]; 0 h, replicate number 1): 0.87 |
